Measurements taken from ChEMBL document CHEMBL1201862, “PubChem BioAssay data set” (2004).
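Following 48 hours of exposure in 96-well plates, responses at five concentrations were used to interpolate endpoints linearly. Here, GI50 denotes the concentration required for 50% inhibition of growth.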 Calls of active or inactive are those of the source. Cut-off read from the data, not from the text of the source: active = GI50 up to about 1.1 µM and inactive = higher.

Experiments:
Test in all cases: DTP human tumour cell line panel, 48 h
SW-620 = test system: SW-620
SK-MEL-28 = test system: SK-MEL-28
HL-60 = test system: HL-60
SR = test system: SR
RPMI-8226 = test system: RPMI-8226
IGROV-1 = test system: IGROV-1
MDA-N = test system: MDA-N
NCI-H226 = test system: NCI-H226
SK-OV-3 = test system: SK-OV-3
M14 = test system: M14
CAKI-1 = test system: CAKI-1
MOLT-4 = test system: MOLT-4
UACC-257 = test system: UACC-257
NCI-H23 = test system: NCI-H23
TK-10 = test system: TK-10
OVCAR-3 = test system: OVCAR-3
HCC 2998 = test system: HCC 2998
MDA-MB-435 = test system: MDA-MB-435
SN12C = test system: SN12C
DU-145 = test system: DU-145

Row | SMILES | GI50 (SW-620) | GI50 (SK-MEL-28) | GI50 (HL-60) | GI50 (SR) | GI50 (RPMI-8226) | GI50 (IGROV-1) | GI50 (MDA-N) | GI50 (NCI-H226) | GI50 (SK-OV-3) | GI50 (M14) | GI50 (CAKI-1) | GI50 (MOLT-4) | GI50 (UACC-257) | GI50 (NCI-H23) | GI50 (TK-10) | GI50 (OVCAR-3) | GI50 (HCC 2998) | GI50 (MDA-MB-435) | GI50 (SN12C) | GI50 (DU-145)
1 | CN(C)CCCN1C(=S)N(CCCN(C)C)c2c3cc(O)ccc3nc3c([N+](=O)[O-])ccc1c23 | 1.96 µM (inactive) | 2.58 µM (inactive) | 3.09 µM (inactive) | 0.278 µM (active) | 4.46 µM (inactive) | 0.7 µM (active) | 3.42 µM (inactive) | 1.94 µM (inactive) | 4.11 µM (inactive) | 7.05 µM (inactive) | 1.66 µM (inactive) | 0.0953 µM (active) | 5.45 µM (inactive) | 3.41 µM (inactive) | 11.5 µM (inactive) | 1.68 µM (inactive) | 2.44 µM (inactive) | 4.2 µM (inactive) | 2.65 µM (inactive) | 2.47 µM (inactive)
2 | COc1cccc2c1C(=O)c1c(O)c3c(c(O)c1C2=O)C[C@@](O)(C(=O)CO)C[C@@H]3OC1CC(N(C)C)C(O)C(C)O1 (stereo not given in full) | < 0.01 µM (active) | 0.0227 µM (active) | 0.1 µM (active) | < 0.01 µM (active) | < 0.0175 µM (active) | < 0.0104 µM (active) | < 0.01 µM (active) | < 0.0149 µM (active) | 0.0728 µM (active) | 0.0306 µM (active) | < 0.01 µM (active) | 0.0159 µM (active) | 0.0285 µM (active) | 0.0137 µM (active) | 0.0303 µM (active) | 0.0644 µM (active) | 0.0675 µM (active) | < 0.01 µM (active) | 0.0189 µM (active) | 0.0519 µM (active)
3 | O=C1NCN(c2ccccc2)C12CCN(CCCN1CCN(CCOC(c3ccccc3)c3ccccc3)CC1)CC2 | 2.62 µM (inactive) | 1.34 µM (inactive) | 1.18 µM (inactive) | 0.561 µM (active) | 1.67 µM (inactive) | 4.03 µM (inactive) | 0.8 µM (active) | 2.96 µM (inactive) | 3.75 µM (inactive) | 1.08 µM (active) | 3.78 µM (inactive) | 2.13 µM (inactive) | 1.47 µM (inactive) | 3.94 µM (inactive) | 3.83 µM (inactive) | 3.54 µM (inactive) | 0.501 µM (active) | 0.923 µM (active) | 3.82 µM (inactive) | 3.59 µM (inactive)
4 | COc1ccc2cc(CNCCOCCOCCNCc3ccc4cc(OC)ccc4c3)ccc2c1 | 0.348 µM (active) | 0.869 µM (active) | 0.216 µM (active) | 0.251 µM (active) | 0.209 µM (active) | 1.63 µM (inactive) | 0.889 µM (active) | 1.55 µM (inactive) | 1.79 µM (inactive) | 0.26 µM (active) | 1.61 µM (inactive) | 0.402 µM (active) | 1.58 µM (inactive) | 1.5 µM (inactive) | 1.54 µM (inactive) | 1.73 µM (inactive) | 0.104 µM (active) | 0.494 µM (active) | 1.72 µM (inactive) | 1.6 µM (inactive)
5 | CC(=O)Nc1ccc(-c2nc3ccccc3s2)cc1Br | > 100 µM (inactive) | > 100 µM (inactive) | > 100 µM (inactive) | > 100 µM (inactive) | > 92.9 µM (inactive) | 0.0124 µM (active) | > 100 µM (inactive) | 2.42 µM (inactive) | 23.2 µM (inactive) | 77.4 µM (inactive) | 25.5 µM (inactive) | > 100 µM (inactive) | > 100 µM (inactive) | 27.4 µM (inactive) | 0.142 µM (active) | 0.305 µM (active) | 0.29 µM (active) | > 100 µM (inactive) | > 78.9 µM (inactive) | 48.2 µM (inactive)
6 | O=C(Oc1cccnc1)c1cc2cc(CCl)ccc2oc1=O | 35.3 µM (inactive) | 32.4 µM (inactive) | 22.8 µM (inactive) | 24 µM (inactive) | 24.5 µM (inactive) | 25.5 µM (inactive) | 26.5 µM (inactive) | 66.1 µM (inactive) | > 100 µM (inactive) | 21.4 µM (inactive) | 18.7 µM (inactive) | 23.3 µM (inactive) | 30.6 µM (inactive) | 19.6 µM (inactive) | 20.8 µM (inactive) | 25.5 µM (inactive) | 57.7 µM (inactive) | 25.9 µM (inactive) | 21.6 µM (inactive) | 18.8 µM (inactive)
7 | COc1ccccc1/C=C/c1ccnc2ccccc12 | 13.8 µM (inactive) | 17.4 µM (inactive) | 7.64 µM (inactive) | 12.8 µM (inactive) | 8.49 µM (inactive) | 4.97 µM (inactive) | 11.6 µM (inactive) | 15.8 µM (inactive) | 16 µM (inactive) | 16.2 µM (inactive) | 14.6 µM (inactive) | 7.87 µM (inactive) | 16 µM (inactive) | 13.6 µM (inactive) | 16.8 µM (inactive) | 13.8 µM (inactive) | 17.5 µM (inactive) | 7.16 µM (inactive) | 18.1 µM (inactive) | 16.4 µM (inactive)
8 | O=C(/C=C/c1cccs1)c1ccccc1Cl | 14.5 µM (inactive) | 16.3 µM (inactive) | 5.81 µM (inactive) | 4.2 µM (inactive) | 16 µM (inactive) | 17.6 µM (inactive) | 15.6 µM (inactive) | 32.8 µM (inactive) | 30.7 µM (inactive) | 1.99 µM (inactive) | 10.6 µM (inactive) | 5.7 µM (inactive) | 17.8 µM (inactive) | 8.81 µM (inactive) | 16.4 µM (inactive) | 14.1 µM (inactive) | 16.8 µM (inactive) | 10.9 µM (inactive) | 15.9 µM (inactive) | 12.4 µM (inactive)
9 | C=C=C(C)[Si](C)(C)C | 90.6 µM (inactive) | > 100 µM (inactive) | 23.7 µM (inactive) | > 100 µM (inactive) | > 100 µM (inactive) | 71.1 µM (inactive) | > 100 µM (inactive) | > 100 µM (inactive) | > 100 µM (inactive) | > 100 µM (inactive) | > 100 µM (inactive) | > 100 µM (inactive) | > 100 µM (inactive) | > 100 µM (inactive) | > 100 µM (inactive) | > 100 µM (inactive) | > 100 µM (inactive) | > 100 µM (inactive) | > 100 µM (inactive) | > 100 µM (inactive)
10 | O=C(O)C(Cc1c[nH]c2ccccc12)C(=O)NO (stereo not given) | 95.5 µM (inactive) | > 100 µM (inactive) | 53.7 µM (inactive) | > 100 µM (inactive) | > 100 µM (inactive) | > 100 µM (inactive) | > 100 µM (inactive) | > 100 µM (inactive) | > 100 µM (inactive) | > 100 µM (inactive) | > 100 µM (inactive) | > 100 µM (inactive) | > 100 µM (inactive) | > 100 µM (inactive) | > 100 µM (inactive) | 96.8 µM (inactive) | > 100 µM (inactive) | > 100 µM (inactive) | > 100 µM (inactive) | > 100 µM (inactive)
11 | O=C(Nc1ccc(Cl)cc1Cl)C1C(=O)OC2(CCCCC2)OC1=O | 5.52 µM (inactive) | 5.77 µM (inactive) | 5.16 µM (inactive) | 5.97 µM (inactive) | 4.16 µM (inactive) | 5.98 µM (inactive) | 15.7 µM (inactive) | 12.6 µM (inactive) | 10.6 µM (inactive) | 8.77 µM (inactive) | 4.78 µM (inactive) | 5.15 µM (inactive) | 12.1 µM (inactive) | 4.4 µM (inactive) | 14.1 µM (inactive) | 3.18 µM (inactive) | 13 µM (inactive) | 8.2 µM (inactive) | 14.7 µM (inactive) | 10.5 µM (inactive)
